Measured values as given in patent US12509460B2 (Skyhawk Therapeutics, Inc., priority 2019, dated 2025).
Read-outs that look alike come from different tables or passages of the source.

What was measured:
[1] = test system: SMN protein in spinal muscular atrophy (SMA) patient fibroblasts (GM03813, Coriell); assay: SMN protein assay, Mesoscale Discovery (MSD); format: cell-based, human; conditions: read-out: SMN2 protein EC50
Method in brief: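 Absolute SMN levels were quantified by MSD against an SMN protein standard curve (1 μg/ml to 19.5 pg/ml) run on each plate. Samples were lysates of GM03813 patient fibroblasts (7000 cells/well) treated 48 hours with compound doses from 2.5 μM down to 0.6 nM.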

[2] = test system: SMN FL and SMN Δ7 in spinal muscular atrophy (SMA) patient fibroblasts (GM03813, Coriell); assay: Quantitative splicing assay (SMN), qPCR; format: cell-based, human; conditions: Homo sapiens, Fibroblast, 24 h, read-out: SMN2 Splicing FL EC50
Experimental: Spinal muscular atrophy (SMA) patient fibroblasts (GM03813, Coriell) are plated in 96-well plates at 50,000 cells/well. […] Treated cells are lysed and cDNA synthesized using the Fast Advanced Cells-to-Ct kit (Thermofisher A35378) according to the manufacturer's instructions. 2 μL of each cDNA are used in qPCR reactions. […] Reactions are run in a Quant Studio 6 qPCR instrument with default settings.

MDR1 = assay: Blood-brain-barrier (BBB) penetration potential via MDCK-MDR1 permeability assay; conditions: dog, MDCK-MDR1, pH 7.4, MDCK-MDR1: Efflux
MDR1 (P-gp) = assay: as above; conditions: dog; for Papp A→B at 120 min, 5 μM: MDCK-MDR1, pH 7.4, MDCK-MDR1: Papp A-B; for Papp B→A at 120 min, 5 μM: MDCK-MDR1, pH 7.4, MDCK-MDR1: Papp B-A
[3] = test system: MDR1-MDCK cell monolayers; assay: as above
[4] = test system: mHTT protein in GM04724 (CAG 70/20) Huntington's disease patient lymphoblast cells; assay: mHTT protein assay, 2B7-MW1 assay via Mesoscale Discovery (MSD); format: cell-based, human
Method in brief: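 Signal from the 2B7-MW1 antibody pair on MSD, rising with polyQ length and smaller HTT fragments, measured mHTT after 48 h compound exposure (0.6 nM–10 μM) in GM04724 cells. A parallel replicate plate gave CellTiter Glo viability.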

[5] = SMA patient fibroblasts GM03813, 48 hours, MSD
[6] = SMA patient fibroblasts GM03813, 24 h, qPCR
[7] = GM04724 Huntington's disease patient lymphoblasts
[8] = SMA patient fibroblasts (GM03813), 48 hours
[9] = SMA patient fibroblasts (GM03813)
[10] = GM04724 (CAG 70/20) Huntington's disease patient lymphoblasts

Compound | EC50 [1, 5] [nM] | EC50 [2, 6] [nM] | efflux ratio at 120 min, 5 μM (MDR1; efflux ratio) | Papp A→B at 120 min, 5 μM (MDR1 (P-gp); A-B direction) [×10⁻⁶ cm/s] | Papp B→A at 120 min, 5 μM (MDR1 (P-gp); B-A direction) [×10⁻⁶ cm/s] | MDCK-MDR1: % Recov A-B ([3]; A-B direction) [%] | MDCK-MDR1: % Recov B-A ([3]; B-A direction) [%] | EC50 [4, 7] [nM] | EC50 [1, 8] [nM] | EC50 [2, 9] [nM] | efflux ratio at 120 min, 5 μM (MDR1) | Papp A→B at 120 min, 5 μM (MDR1 (P-gp); A-B) [×10⁻⁶ cm/s] | Papp B→A at 120 min, 5 μM (MDR1 (P-gp); B-A) [×10⁻⁶ cm/s] | MDCK-MDR1: % Recov A-B ([3]; A-B) [%] | MDCK-MDR1: % Recov B-A ([3]; B-A) [%] | EC50 [4, 10] [nM] | mHTT protein EC50 [4, 10]
CN(c1ccc(-c2cc3ncn(CC(F)(F)F)c(=O)c3cc2O)nn1)[C@@H]1C[C@H]2CC[C@H](N2)[C@@H]1F [Compound 81A, 7-(6-(((1S,2S,3R,5R)-2-fluoro-8-azabicyclo[3.2.1]octan-3-yl)(methyl)amino)pyridazin-3-yl)-6-hydroxy-3-(2,2,2-trifluoroethyl)quinazolin-4(3H)-one] | 16 to 50 | 51 to 100 | 139 | 0.37 | 51 | 100 | 94 | 101 to 500 | – | – | – | – | – | – | – | – | –
CN(c1ccc(-c2cc3ncn(CC(F)(F)F)c(=O)c3cc2O)nn1)[C@H]1C[C@@H]2CC[C@@H](N2)[C@H]1F [Compound 81B, 7-(6-(((1R,2R,3S,5S)-2-fluoro-8-azabicyclo[3.2.1]octan-3-yl)(methyl)amino)pyridazin-3-yl)-6-hydroxy-3-(2,2,2-trifluoroethyl)quinazolin-4(3H)-one] | 0.01 to 15 | 16 to 50 | 138 | 0.4 | 54.6 | 96 | 100 | 51 to 100 | – | – | – | – | – | – | – | – | –
CN(c1ccc(-c2cc3nccnc3cc2O)nn1)[C@@H]1C[C@H]2CC[C@H](N2)[C@@H]1F [Compound 88A, 7-(6-(((1S,2S,3R,5R)-2-fluoro-8-azabicyclo[3.2.1]octan-3-yl)(methyl)amino)pyridazin-3-yl)quinoxalin-6-ol] | 16 to 50 | 101 to 500 | 9 | 4.84 | 45.7 | 85 | 99 | 51 to 100 | – | – | – | – | – | – | – | – | –
CN(c1ccc(-c2cc3nnccc3cc2O)nn1)[C@@H]1C[C@H]2CC[C@H](N2)[C@@H]1F [Compound 89A, 7-(6-(((1S,2S,3R,5R)-2-fluoro-8-azabicyclo[3.2.1]octan-3-yl)(methyl)amino)pyridazin-3-yl)cinnolin-6-ol] | 16 to 50 | 101 to 500 | 51 | 1.31 | 67.3 | 92 | 106 | 101 to 500 | – | – | – | – | – | – | – | – | –
Cc1cc(=O)c2cc(O)c(-c3ccc(N(C)[C@H]4C[C@@H]5CC[C@H]([C@H]4F)N5C)nn3)cc2o1 [Compound 99B, 7-(6-(((1R,2R,3S,5S)-2-fluoro-8-methyl-8-azabicyclo[3.2.1]octan-3-yl)(methyl)amino)pyridazin-3-yl)-6-hydroxy-2-methyl-4H-chromen-4-one] | – | – | – | – | – | – | – | – | 0.01 to 15 | 51 to 100 | 21 | 2.74 | 56.7 | 103 | 112 | 101 to 500 | –
Cc1cc(=O)c2cc(-c3ccc(N(C)[C@@H]4C[C@H]5CC[C@@H]([C@@H]4F)N5C)nn3)c(O)cc2o1 [Compound 100A, 6-(6-(((1S,2S,3R,5R)-2-fluoro-8-methyl-8-azabicyclo[3.2.1]octan-3-yl)(methyl)amino)pyridazin-3-yl)-7-hydroxy-2-methyl-4H-chromen-4-one] | – | – | – | – | – | – | – | – | 51 to 100 | 101 to 500 | 6 | 6.34 | 40.7 | 80 | 102 | – | E (501 ≤ E ≤ 10.000)
Cc1cc(=O)c2cc(-c3ccc(N(C)[C@H]4C[C@@H]5CC[C@H]([C@H]4F)N5C)nn3)c(O)cc2o1 [Compound 100B, 6-(6-(((1R,2R,3S,5S)-2-fluoro-8-methyl-8-azabicyclo[3.2.1]octan-3-yl)(methyl)amino)pyridazin-3-yl)-7-hydroxy-2-methyl-4H-chromen-4-one] | – | – | – | – | – | – | – | – | 16 to 50 | 16 to 50 | 4 | 9.57 | 38.7 | 79 | 80 | 51 to 100 | –
CN(c1ccc(-c2cc3ncn(C)c(=O)c3cc2O)nn1)[C@H]1C[C@@H]2CC[C@H]([C@H]1F)N2C [Compound 101B, 7-(6-(((1R,2R,3S,5S)-2-fluoro-8-methyl-8-azabicyclo[3.2.1]octan-3-yl)(methyl)amino)pyridazin-3-yl)-6-hydroxy-3-methylquinazolin-4(3H)-one] | – | – | – | – | – | – | – | – | 0.01 to 15 | 51 to 100 | 24 | 2.41 | 59.1 | 118 | 119 | 51 to 100 | –
CN(c1ccc(-c2cc3c(=O)n(C)cnc3cc2O)nn1)[C@H]1C[C@@H]2CC[C@H]([C@H]1F)N2C [Compound 102B, 6-(6-(((1R,2R,3S,5S)-2-fluoro-8-methyl-8-azabicyclo[3.2.1]octan-3-yl)(methyl)amino)pyridazin-3-yl)-7-hydroxy-3-methylquinazolin-4(3H)-one] | – | – | – | – | – | – | – | – | 16 to 50 | 101 to 500 | 30 | 1.63 | 48.1 | 91 | 91 | 51 to 100 | –
CN(c1ccc(-c2cc(F)c(-n3ccnn3)cc2O)nn1)[C@H]1C[C@@H]2CC[C@H]([C@H]1F)N2C [Compound 103B, 4-fluoro-2-(6-(((1R,2R,3S,5S)-2-fluoro-8-methyl-8-azabicyclo[3.2.1]octan-3-yl)(methyl)amino)pyridazin-3-yl)-5-(1H-1,2,3-triazol-1-yl)phenol] | – | – | – | – | – | – | – | – | 51 to 100 | 101 to 500 | 4 | 12.6 | 49.1 | 95 | 94 | – | E (501 ≤ E ≤ 10.000)
CN(c1ccc(-c2cc3oc(C(=O)N4CCC4)cc3cc2O)nn1)[C@H]1C[C@@H]2CC[C@H]([C@H]1F)N2C [Compound 107B, azetidin-1-yl(6-(6-(((1R,2R,3S,5S)-2-fluoro-8-methyl-8-azabicyclo[3.2.1]octan-3-yl)(methyl)amino)pyridazin-3-yl)-5-hydroxybenzofuran-2-yl)methanone] | – | – | – | – | – | – | – | – | 16 to 50 | 101 to 500 | 47 | 0.99 | 46.3 | 76 | 84 | – | E (501 ≤ E ≤ 10.000)
